Source: paper PMC6081459, “Pathogen-derived HLA-E bound epitopes reveal broad primary anchor pocket tolerability and conformationally malleable peptide binding” (Nature Communications, 2018)

Columns and labels:
[1] = tested on: Mamu-E restricted CD8^+ T cells; type: cell-based, rhesus macaques (Macaca mulatta)
HLA-E*01:03 = HLA-E*01:03 (Homo sapiens, UniProt P13747); test: Single-chain peptide-β2m-HC construct, HLA-E surface expression in transfected 293T cells; type: cell-based; details: peptide encoded in single-chain peptide-β2M-HC construct, 24 h after transfection, flow cytometry, scaled to index position 2 residue, n = 4

Sequence | Magnitude of CD8+ T cell responses to Mtb44 and position 2 variants [1] | Relative HLA-E surface expression (MFI, 3D12 antibody) (HLA-E*01:03)
RQPAKAPLL [Mtb44*P2-Gln] | responses of similar magnitude | –
RFPAKAPLL [Mtb44*P2-Phe] | responses of similar magnitude | highest relative levels of HLA-E surface expression
RLPAKAPLL [Mtb44] | responses of similar magnitude | –
